Data on one compound can be found in US12071586B2, “Composition and method for controlling bacteria in formations” (priority 2017, dated 2024).

Experiment [1] relates to SRB. The experiment in a line: Hydrogen sulfide inhibition in actual produced water (Eagle Ford shale, diluted to 3%), H2S by Draeger tubes. The format is cell-based, sulfate-reducing bacteria (SRB). To be noted: 20 ppm MoO4 alone, actual produced water (Example 7). As for the experimental part:
(§1) Hydrogen sulfide inhibition was tested in mock-produced water approximating water used in hydraulic fracturing operations and was made to a total dissolved solids concentration of 3% with a mixture of instant ocean and NaCl salts. The water was supplemented with nutrients and sulfate to allow SRB to metabolize and create H2S. The water was spiked with SRB and then treated with the various treatment conditions noted below in Table 3 and sealed. Treatment conditions were: Control: No biocide or nitrate.
(§2) H2S was measured at intervals using H2S detecting Draeger tubes. Dissolved H2S was released into the gas phase with the addition of hydrochloric acid so that H2S could be measured with the Draeger tubes to get a complete reading of all H2S produced during the course of the example.
Samples were prepared in accordance with Example 4, except that actual produced water sourced from the Eagle Ford shale that was diluted to 3% using deionized water was used in the samples.
Example 7 was performed in accordance with Example 6 using actual produced water. Samples of the following were mixed with the […].

Experiment [2] relates to SRB. The experiment in a line: Hydrogen sulfide inhibition in mock-produced water spiked with SRB, H2S by Draeger tubes. Type of experiment: cell-based, sulfate-reducing bacteria (SRB). The conditions noted are these: 20 ppm MoO4 alone, mock produced water (Example 6). As for the experimental part: as §1, §2
Example 6 was performed in accordance with Example 4 using mock produced water. Samples of the following were mixed with the mock produced water.

Consider `[O]=[Mo](=[O])([O-])[O-]` [MoO4, molybdate], for which the entries for the “Total H2S” value in the experiment with SRB [1] and in the experiment on SRB [2] were 3188 ppm and 1974 ppm, respectively.
